Data from US4406883A, “Controlled release suppositories consisting essentially of a linear polymer particularly, polyvinyl pyrrolidones” (Merrell Dow Pharmaceuticals Inc., priority 1981, dated 1983).
Structures can show the parent of a compound that is named as a salt. Where two headings read alike, the source gives them in different places.

How the values were obtained:
[1] = male beagle
Procedure: Four smaller pieces were randomly cut from the remainder and placed into weighed vials. Distilled water (10 ml) was added to each vial and the contents were allowed to dissolve overnight. Triplicate aliquots (0.1 ml) were removed for the determination of radioactivity as for plasma.
The evacuated suppository was separated from the faecal pellet and weighed. The sample was then homogenised with a known quantity of purified sand (sand to sample ratio, 2:1).
Four pieces of the sand/suppository mixture were placed in weighed vials. Distilled water (4 ml) was added to each vial and the contents were allowed to dissolve overnight. Unisolve 1 (10 ml) was added and the resulting translucent gel was mixed by vigorous shaking. The samples were assayed for radioactivity.
They were then re-weighed and the moisture content of the evacuated suppository was determined.

[2] = In vitro trial: drug release from extruded suppositories in 150 ml water at 37° C.; format: physicochemical; conditions: phenylephrine hydrochloride vs lignocaine hydrochloride, alone and together (FIGS. 6-8)
Procedure: Mixes for the in vivo and the in vitro trails were made by dissolving the required quantities of drug in water which was then added to the polymer and thoroughly mixed using a spatula. […] The resulting damp, spongy particles were squeezed together by hand to form a dough-like mixture. The mixes were extruded through a nozzle of a 50 ml plastic syringe to form a long rod (9 mm diameter). Immediately after, suppositories were made by cutting the rod into 3 cm length and were stored in an air-tight container prior to use.
Drug release rates were studied in four ways:
(i) release from suppositories containing 20 mg phenylephrine hydrochloride only (in duplicate).
(iii) release from suppositories containing both drugs in the above amounts (in triplicate).
The concentration of drug in the aliquot was immediately determined spectrophotometrically (q.v.) after which the aliquot sample was returned to the solution. […]
Analytical background effects (due to the polymer) were measured by repeating the spectrophotometric procedure using a suppository containing no drug. […]
The absorbences of the samples taken during the in vitro trial were measured on the spectrophotometer and the concentrations of the dissolved drugs determined by reference to the calibration curves.
Drug release rates were measured in the in vitro trials for suppositories containing each drug alone and both drugs together. […]

[3] = male beagle, rectal, dose 38.93 μCi

[^14 C]-lignocaine hydrochloride
time of maximum plasma concentration of radioactivity (dog, rectal): 8 h
maximum plasma concentration of radioactivity (dog, rectal, at 8 h): 0.00295 %/ml of the administered radioactive dose
% total administered dose, liver (male beagle, 48 h): 0.36%
% total administered dose, rectal contents (male beagle, 48 h): 0.086%
% total administered dose, rectum (male beagle, 48 h): 0.026%
cumulative % total administered dose, through liver (male beagle, 48 h): 0.375%
cumulative % total administered dose, through rectal contents (male beagle, 48 h): 0.487%
cumulative % total administered dose, through rectum (male beagle, 48 h): 0.401%
cumulative % total administered dose, through urine and faeces (male beagle, 48 h): 48.687%
total radioactivity recovered, bile (male beagle, 48 h): 0.006 μCi
total radioactivity recovered, liver (male beagle, 48 h): 0.14 μCi
total radioactivity recovered, rectal contents (male beagle, 48 h): 0.03 μCi
total radioactivity recovered, rectum (male beagle, 48 h): 0.01 μCi
total radioactivity recovered, urine and faeces (male beagle, 48 h): 18.77 μCi
concentration of radioactivity in plasma (male beagle, rectal, 0 h): 0 % administered radioactive dos
radioactive drug equivalents in plasma (male beagle, rectal, 0 h): 0 μg equivalents/ml plasma
concentration of radioactivity in plasma (male beagle, rectal, 0.5 h): 0.00081 % administered radioactive dos
radioactive drug equivalents in plasma (male beagle, rectal, 0.5 h): 0.75 μg equivalents/ml plasma
concentration of radioactivity in plasma (male beagle, rectal, 1 h): 0.0014 % administered radioactive dos
radioactive drug equivalents in plasma (male beagle, rectal, 1 h): 1.33 μg equivalents/ml plasma
concentration of radioactivity in plasma (male beagle, rectal, 2 h): 0.0022 % administered radioactive dos
radioactive drug equivalents in plasma (male beagle, rectal, 2 h): 2.08 μg equivalents/ml plasma
concentration of radioactivity in plasma (male beagle, rectal, 4 h): 0.00291 % administered radioactive dos
radioactive drug equivalents in plasma (male beagle, rectal, 4 h): 2.72 μg equivalents/ml plasma
concentration of radioactivity in plasma (male beagle, rectal, 8 h): 0.00295 % administered radioactive dos
radioactive drug equivalents in plasma (male beagle, rectal, 8 h): 2.75 μg equivalents/ml plasma
concentration of radioactivity in plasma (male beagle, rectal, 24 h): 0.00267 % administered radioactive dos
radioactive drug equivalents in plasma (male beagle, rectal, 24 h): 2.49 μg equivalents/ml plasma
concentration of radioactivity in plasma (male beagle, rectal, 48 h): 0.00062 % administered radioactive dos
radioactive drug equivalents in plasma (male beagle, rectal, 48 h): 0.58 μg equivalents/ml plasma
total radioactivity excreted, total (male beagle, rectal, 48 h, dose 38.93 μCi): 18.77 μCi
total radioactivity excreted, 0-24 h urine [3]: 13.45 μCi
total radioactivity excreted, 24-48 h urine [3]: 2.19 μCi
total radioactivity excreted, total faeces [3]: 3.13 μCi
% total administered dose in evacuated suppository [1]: 27.58%
radioactive dose remaining in evacuated suppository ([1]; dose 38.93 μCi): 10.74 μCi

CCN(CC)CC(=O)Nc1c(C)cccc1C [lignocaine hydrochloride]
proportion of drug released, comparison of drugs [2]: approximately the same

CNC[C@H](O)c1cccc(O)c1 [phenylephrine hydrochloride]
proportion of drug released, comparison of drugs [2]: approximately the same
